Measured values published in US20130303532A1, “IMIDAZOPYRAZINES FOR USE AS MPS-1 AND TKK INHIBITORS IN THE TREATMENT HYPERPROLIFERATIVE DISORDERS” (BAYER INTELLECTUAL PROPERTY GmbH, priority 2010, published 2013).
Where two headings read alike, the source gives them in different places.

Target: T1, human kinase Mps-1 (Homo sapiens, UniProt P33981)
T1 construct: N-terminally GST-tagged human full length recombinant Mps-1 kinase; GST (N); purchased Invitrogen, Karslruhe, Germany PV4071
T1 sequence (P33981 1-857): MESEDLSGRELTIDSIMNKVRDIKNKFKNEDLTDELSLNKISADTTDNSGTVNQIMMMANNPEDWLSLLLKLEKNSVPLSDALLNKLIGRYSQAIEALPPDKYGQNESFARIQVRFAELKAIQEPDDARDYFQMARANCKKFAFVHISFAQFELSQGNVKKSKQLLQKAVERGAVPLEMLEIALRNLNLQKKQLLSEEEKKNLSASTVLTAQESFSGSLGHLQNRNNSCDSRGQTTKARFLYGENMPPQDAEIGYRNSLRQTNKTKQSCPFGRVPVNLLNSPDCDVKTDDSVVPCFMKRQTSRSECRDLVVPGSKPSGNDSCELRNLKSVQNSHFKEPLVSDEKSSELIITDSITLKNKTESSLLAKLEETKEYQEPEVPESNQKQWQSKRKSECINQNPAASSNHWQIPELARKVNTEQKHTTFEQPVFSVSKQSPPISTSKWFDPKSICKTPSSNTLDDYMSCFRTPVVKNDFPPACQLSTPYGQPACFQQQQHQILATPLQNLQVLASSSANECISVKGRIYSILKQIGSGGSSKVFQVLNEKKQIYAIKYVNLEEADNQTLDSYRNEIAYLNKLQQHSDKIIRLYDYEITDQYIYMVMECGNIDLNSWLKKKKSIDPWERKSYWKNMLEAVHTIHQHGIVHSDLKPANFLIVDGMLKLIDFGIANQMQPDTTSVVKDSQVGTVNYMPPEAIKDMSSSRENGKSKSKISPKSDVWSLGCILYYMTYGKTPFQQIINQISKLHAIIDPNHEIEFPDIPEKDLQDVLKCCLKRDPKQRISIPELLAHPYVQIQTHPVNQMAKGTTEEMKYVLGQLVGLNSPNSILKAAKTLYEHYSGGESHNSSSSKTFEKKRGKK
Assay: Mps-1 kinase assay (TR-FRET)
Type: biochemical
Settings: N-terminally GST-tagged human full length recombinant Mps-1, 10 μM ATP, 1 μM biotinylated peptide substrate, 60 min at 22° C.

| Structure (SMILES) | IC50 (Mps1 IC50 [nM]) [nM] | IC50 (read-out: Mps1 IC50) [nM] |
| --- | --- | --- |
| Cc1cc(-c2cnc3c(NCC(C)O)nccn23)ccc1C(=O)NC1CC1 (stereo not shown) [Example 7-115, N-cyclopropyl-4-{8-[(2-hydroxypropyl)amino]imi-dazo[1,2-a]pyrazin-3-yl}-2-methylbenzamide] | 101 | – |
| COCCCNc1nccn2c(-c3ccc(C(=O)NC4CC4)c(C)c3)cnc12 [Example 7-116, N-cyclopropyl-4-{8-[(3-methoxypropyl)amino]imi-dazo[1,2-a]pyrazin-3-yl}-2-methylbenzamide] | 141 | – |
| Cc1cc(-c2cnc3c(NCCCNC(=O)OC(C)(C)C)nccn23)ccc1C(=O)NC1CC1 [Example 7-117, tert-butyl [3-({3-[4-(cyclopropylcarbamoyl)-3-methylphenyl]imidazo[1,2-a]pyrazin-8-yl}amino)propyl]carbamate] | – | 196 |
| Cc1cc(-c2cnc3c(NCC(F)F)nccn23)ccc1C(=O)NC1CC1 [Example 7-118, N-cyclopropyl-4-{8-[(2,2-difluoroethyl)amino]imi-dazo[1,2-a]pyrazin-3-yl}-2-methylbenzamide] | 70.3 | – |
| Cc1cc(-c2cnc3c(NCc4ccn(C)n4)nccn23)ccc1C(=O)NC1CC1 [Example 7-119, N-cyclopropyl-2-methyl-4-(8-{[(1-methyl-1H-pyrazol-3-yl)methyl]amino}imi-dazo[1,2-a]pyrazin-3-yl)benzamide] | 298 | – |
| Cc1cc(-c2cnc3c(NCc4cnn(C)c4)nccn23)ccc1C(=O)NC1CC1 [Example 7-120, N-cyclopropyl-2-methyl-4-(8-{[(1-methyl-1H-pyrazol-4-yl)methyl]amino}imi-dazo[1,2-a]pyrazin-3-yl)benzamide] | 93.4 | – |
| CCOC(C)CNc1nccn2c(-c3ccc(C(=O)NC4CC4)c(C)c3)cnc12 (stereo not shown) [Example 7-121, N-cyclopropyl-4-{8-[(2-ethoxypropyl)amino]imi-dazo[1,2-a]pyrazin-3-yl}-2-methylbenzamide] | 154 | – |
| Cc1cc(-c2cnc3c(NCC(C)(C)O)nccn23)ccc1C(=O)NC1CC1 [Example 7-122, N-cyclopropyl-4-{8-[(2-hydroxy-2-methylpropyl)amino]imi-dazo[1,2-a]pyrazin-3-yl}-2-methylbenzamide] | 171 | – |
| Cc1cc(-c2cnc3c(NCc4ccc(Cl)s4)nccn23)ccc1C(=O)NC1CC1 [Example 7-123, 4-(8-{[(5-chlorothiophen-2-yl)methyl]amino}imi-dazo[1,2-a]pyrazin-3-yl)-N-cyclopropyl-2-methylbenzamide] | 22.5 | – |
| Cc1cc(-c2cnc3c(NCC4CCCCO4)nccn23)ccc1C(=O)NC1CC1 (stereo not shown) [Example 7-124, N-cyclopropyl-2-methyl-4-{8-[(tetrahydro-2H-pyran-2-ylmethyl)amino]imi-dazo[1,2-a]pyrazin-3-yl}benzamide] | 80.8 | – |
| Cc1cc(-c2cnc3c(NC[C@@H](O)CO)nccn23)ccc1C(=O)NC1CC1 [Example 7-125, N-cyclopropyl-4-{8-[(2,3-dihydroxypropyl)amino]imi-dazo[1,2-a]pyrazin-3-yl}-2-methylbenzamide] | 361 | – |
| Cc1cc(-c2cnc3c(NCc4c(F)cccc4F)nccn23)ccc1C(=O)NC1CC1 [Example 7-127, N-cyclopropyl-4-{8-[(2,6-difluorobenzyl)amino]imi-dazo[1,2-a]pyrazin-3-yl}-2-methylbenzamide] | 47.1 | – |
| COc1cc(C(=O)NC2CC2)ccc1-c1cnc2c(NCC(C)C)nccn12 [Example 7-128, N-cyclopropyl-3-methoxy-4-{8-[(2-methylpropyl)amino]imi-dazo[1,2-a]pyrazin-3-yl}benzamide] | 19.3 | – |
